Results published in article PMC3961306, “Comparison of the Cancer Gene Targeting and Biochemical Selectivities of All Targeted Kinase Inhibitors Approved for Clinical Use” (PLoS ONE, 2014).

Assays:
Assay in all cases: Kinase profiling in a biochemical assay panel (mobility shift assays and ELISA), %-inhibition at 1 μM; selectivity entropy
[1] = target: panel of more than 300 wild-type and mutant kinases (313 kinase panel) (Homo sapiens, UniProt Q13882)
[2] = target: panel of more than 300 wild-type and mutant kinases (313 kinase panel) (Homo sapiens, UniProt Q15119); conditions: kinase PDHK2; 1 μM
[3] = target: panel of more than 300 wild-type and mutant kinases (313 kinase panel) (Homo sapiens, UniProt P08581); conditions: kinase MET; compound at 1 μM
[4] = target: panel of more than 300 wild-type and mutant kinases (313 kinase panel) (Homo sapiens, UniProt Q9UBS0); conditions: kinase p70S6Kβ; 1 μM
[5] = target: panel of more than 300 wild-type and mutant kinases (313 kinase panel) (Homo sapiens, UniProt O75582); conditions: kinase MSK1; 1 μM
[6] = target: panel of more than 300 wild-type and mutant kinases (313 kinase panel) (Homo sapiens, UniProt Q8N4C8)
[7] = target: panel of more than 300 wild-type and mutant kinases (313 kinase panel) (Homo sapiens, UniProt P51617); conditions: kinase IRAK1; compound at 1 μM
[8] = target: T1, panel of more than 300 wild-type and mutant kinases (313 kinase panel) (Homo sapiens, UniProt P00540); conditions: kinase MOS; 1 μM
T1 sequence (P00540 1-346): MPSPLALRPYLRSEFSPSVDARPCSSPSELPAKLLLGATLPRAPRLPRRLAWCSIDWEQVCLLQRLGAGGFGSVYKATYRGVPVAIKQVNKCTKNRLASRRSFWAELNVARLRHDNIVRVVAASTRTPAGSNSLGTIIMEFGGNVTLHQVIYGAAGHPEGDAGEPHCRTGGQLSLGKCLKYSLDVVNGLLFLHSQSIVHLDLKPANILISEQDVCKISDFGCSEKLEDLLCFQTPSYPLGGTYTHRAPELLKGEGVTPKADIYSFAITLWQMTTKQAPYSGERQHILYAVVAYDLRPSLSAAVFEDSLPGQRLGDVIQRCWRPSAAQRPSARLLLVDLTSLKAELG

[9] = target: panel of more than 300 wild-type and mutant kinases (313 kinase panel) (Homo sapiens, UniProt P48729); conditions: kinase CK1α; 1 μM compound
[10] = target: panel of more than 300 wild-type and mutant kinases (313 kinase panel) (Homo sapiens, UniProt P57059); conditions: kinase SIK; 1 μM
[11] = target: panel of more than 300 wild-type and mutant kinases (313 kinase panel) (Homo sapiens, UniProt Q9P289)
[12] = target: panel of more than 300 wild-type and mutant kinases (313 kinase panel) (Homo sapiens, UniProt P24941); conditions: for %-inhibition, CDK2/CycA2: kinase CDK2/CycA2
[13] = target: panel of more than 300 wild-type and mutant kinases (313 kinase panel) (Homo sapiens, UniProt Q9UM73); conditions: kinase ALK; 1 μM compound
[14] = target: panel of more than 300 wild-type and mutant kinases (313 kinase panel) (Homo sapiens, UniProt Q9HCP0); conditions: kinase CK1γ1; 1 μM compound
[15] = target: panel of more than 300 wild-type and mutant kinases (313 kinase panel) (Homo sapiens, UniProt Q96SB4); conditions: kinase SRPK1; 1 μM
[16] = kinase CDK2/CycE1, 1 μM compound

panel of more than 300 wild-type and mutant kinases (313 kinase panel) (Homo sapiens, UniProt Q9P289), sequence (Q9P289 whole entry, change not shown): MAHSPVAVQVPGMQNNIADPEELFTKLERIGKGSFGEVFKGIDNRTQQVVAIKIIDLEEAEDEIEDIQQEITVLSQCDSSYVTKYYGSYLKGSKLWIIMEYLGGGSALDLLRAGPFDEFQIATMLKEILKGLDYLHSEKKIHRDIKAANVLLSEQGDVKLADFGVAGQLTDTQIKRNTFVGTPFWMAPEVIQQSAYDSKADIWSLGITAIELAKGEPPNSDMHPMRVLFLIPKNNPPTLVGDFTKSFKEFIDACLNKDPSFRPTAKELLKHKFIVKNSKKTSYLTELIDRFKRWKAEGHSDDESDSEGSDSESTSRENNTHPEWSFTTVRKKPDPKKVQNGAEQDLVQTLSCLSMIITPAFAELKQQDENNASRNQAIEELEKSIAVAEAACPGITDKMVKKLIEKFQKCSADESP
panel of more than 300 wild-type and mutant kinases (313 kinase panel) (Homo sapiens, UniProt Q8N4C8), sequence (Q8N4C8 whole entry, change not shown): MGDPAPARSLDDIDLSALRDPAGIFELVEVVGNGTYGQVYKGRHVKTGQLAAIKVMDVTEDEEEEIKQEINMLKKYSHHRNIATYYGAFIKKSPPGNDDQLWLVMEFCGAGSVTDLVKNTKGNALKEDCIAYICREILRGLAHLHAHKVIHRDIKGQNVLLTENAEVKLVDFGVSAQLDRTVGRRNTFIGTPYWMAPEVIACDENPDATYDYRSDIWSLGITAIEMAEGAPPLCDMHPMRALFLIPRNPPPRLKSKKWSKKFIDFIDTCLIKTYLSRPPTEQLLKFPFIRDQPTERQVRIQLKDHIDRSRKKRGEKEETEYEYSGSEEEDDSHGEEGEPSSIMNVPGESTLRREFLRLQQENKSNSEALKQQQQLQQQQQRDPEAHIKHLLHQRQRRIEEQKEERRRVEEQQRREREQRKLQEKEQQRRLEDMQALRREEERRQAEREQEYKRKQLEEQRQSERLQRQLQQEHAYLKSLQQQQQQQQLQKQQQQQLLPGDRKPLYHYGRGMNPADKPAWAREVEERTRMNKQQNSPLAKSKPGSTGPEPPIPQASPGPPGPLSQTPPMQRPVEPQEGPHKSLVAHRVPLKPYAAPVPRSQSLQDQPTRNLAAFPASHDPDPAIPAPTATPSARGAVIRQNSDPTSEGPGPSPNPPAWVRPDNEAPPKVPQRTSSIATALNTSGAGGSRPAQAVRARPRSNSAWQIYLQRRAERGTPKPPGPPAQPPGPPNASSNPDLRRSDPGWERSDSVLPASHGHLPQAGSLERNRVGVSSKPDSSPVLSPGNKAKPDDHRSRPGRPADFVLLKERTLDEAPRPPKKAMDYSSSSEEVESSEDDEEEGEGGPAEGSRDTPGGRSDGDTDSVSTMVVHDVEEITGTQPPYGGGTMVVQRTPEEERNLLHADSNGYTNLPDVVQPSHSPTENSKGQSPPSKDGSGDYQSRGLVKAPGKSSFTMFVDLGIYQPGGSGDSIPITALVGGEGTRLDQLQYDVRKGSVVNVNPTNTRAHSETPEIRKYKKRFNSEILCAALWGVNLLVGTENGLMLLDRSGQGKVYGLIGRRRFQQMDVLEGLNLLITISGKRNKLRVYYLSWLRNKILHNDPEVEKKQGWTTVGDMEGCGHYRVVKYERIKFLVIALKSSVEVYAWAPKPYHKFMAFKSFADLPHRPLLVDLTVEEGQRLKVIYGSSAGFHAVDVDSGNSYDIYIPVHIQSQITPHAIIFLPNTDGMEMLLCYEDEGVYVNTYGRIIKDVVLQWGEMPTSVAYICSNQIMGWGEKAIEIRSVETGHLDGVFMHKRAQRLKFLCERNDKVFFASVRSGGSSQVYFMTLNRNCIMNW
panel of more than 300 wild-type and mutant kinases (313 kinase panel) (Homo sapiens, UniProt Q96SB4), sequence (Q96SB4 whole entry, change not shown): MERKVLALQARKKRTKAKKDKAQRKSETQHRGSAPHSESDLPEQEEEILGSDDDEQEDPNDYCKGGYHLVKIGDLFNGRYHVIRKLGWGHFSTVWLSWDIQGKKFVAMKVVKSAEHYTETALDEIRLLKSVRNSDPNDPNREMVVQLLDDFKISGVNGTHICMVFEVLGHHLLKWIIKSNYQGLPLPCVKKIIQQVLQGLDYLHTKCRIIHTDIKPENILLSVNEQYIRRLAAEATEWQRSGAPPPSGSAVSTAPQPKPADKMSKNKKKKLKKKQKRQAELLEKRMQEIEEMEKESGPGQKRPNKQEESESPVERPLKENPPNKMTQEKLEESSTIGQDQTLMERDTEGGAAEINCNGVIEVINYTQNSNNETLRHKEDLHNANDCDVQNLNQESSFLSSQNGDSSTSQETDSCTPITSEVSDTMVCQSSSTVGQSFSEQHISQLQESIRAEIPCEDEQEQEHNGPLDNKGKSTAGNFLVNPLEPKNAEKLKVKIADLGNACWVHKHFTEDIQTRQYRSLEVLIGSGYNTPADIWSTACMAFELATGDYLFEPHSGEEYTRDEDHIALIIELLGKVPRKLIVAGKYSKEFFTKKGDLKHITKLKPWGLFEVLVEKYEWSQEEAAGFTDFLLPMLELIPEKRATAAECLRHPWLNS
panel of more than 300 wild-type and mutant kinases (313 kinase panel) (Homo sapiens, UniProt Q13882), sequence (Q13882 whole entry, change not shown): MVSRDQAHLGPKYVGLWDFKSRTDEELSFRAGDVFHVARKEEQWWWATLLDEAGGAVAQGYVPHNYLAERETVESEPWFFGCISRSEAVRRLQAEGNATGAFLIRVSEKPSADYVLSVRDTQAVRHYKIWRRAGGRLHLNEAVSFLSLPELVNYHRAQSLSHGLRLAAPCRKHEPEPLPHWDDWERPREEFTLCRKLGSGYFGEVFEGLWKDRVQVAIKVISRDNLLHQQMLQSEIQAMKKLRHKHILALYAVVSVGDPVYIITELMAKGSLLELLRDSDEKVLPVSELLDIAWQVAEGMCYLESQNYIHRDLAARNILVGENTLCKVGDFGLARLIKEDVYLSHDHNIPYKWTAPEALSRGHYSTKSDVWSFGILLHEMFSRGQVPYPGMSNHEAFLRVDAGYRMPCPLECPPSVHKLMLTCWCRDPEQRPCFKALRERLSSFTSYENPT

Compound	%-inhibition, BRK ([1]; kinase BRK, 1 μM compound)	%-inhibition of PDHK2 [2]	%-inhibition of MET [3]	%-inhibition of p70S6Kβ [4]	%-inhibition of MSK1 [5]	%-inhibition of MINK ([6]; kinase MINK, 1 μM)	%-inhibition of IRAK1 [7]	%-inhibition of MOS [8]	%-inhibition, CK1α [9]	%-inhibition of SIK [10]	%-inhibition of MST4 ([11]; kinase MST4, 1 μM)	%-inhibition, CDK2/CycA2 ([12]; 1 μM compound)	%-inhibition, CDK2/CycE1 [12, 16]	%-inhibition, ALK [13]	%-inhibition, CK1γ1 [14]	%-inhibition of MST4 ([11]; 1 µM)	%-inhibition of SRPK1 [15]	%-inhibition, BRK ([1]; 1 µM)	%-inhibition, CDK2/CycE1 ([12]; 1 µM)	%-inhibition of MINK ([6]; 1 µM)
CC(C)(C)c1nc(-c2cccc(NS(=O)(=O)c3c(F)cccc3F)c2F)c(-c2ccnc(N)n2)s1 [dabrafenib]	98%	0.108%	27%	-0.554%	0.0759%	-0.772%	-48%	-12%	13%	100%	-7%	–	–	–	–	–	–	–	–	–
CCCS(=O)(=O)Nc1ccc(F)c(C(=O)c2c[nH]c3ncc(-c4ccc(Cl)cc4)cc23)c1F [vemurafenib]	98%	3.73%	3.67%	0.235%	0.256%	10%	10%	10%	-4.34%	24%	–	-3%	-5%	1.14%	-2%	-4.62%	2%	–	–	–
CN(C)C/C=C/C(=O)Nc1cc2c(Nc3ccc(F)c(Cl)c3)ncnc2cc1O[C@H]1CCOC1 [afatinib]	–	-2.76%	–	3.42%	–	–	–	-2%	–	–	–	–	–	–	–	–	–	–	–	–
Cc1nc(Nc2ncc(C(=O)Nc3c(C)cccc3Cl)s2)cc(N2CCN(CCO)CC2)n1 [dasatinib]	–	–	–	–	–	40%	2.75%	–	-8.44%	–	–	5%	12%	–	–	–	-2.17%	–	–	–
C[C@@H](Oc1cc(-c2cnn(C3CCNCC3)c2)cnc1N)c1c(Cl)ccc(F)c1Cl [crizotinib]	15%	-3.51%	–	6%	-0.641%	0%	–	1.25%	-1.36%	26%	0.54%	–	-14%	–	-3.52%	–	4.55%	–	–	–
Cc1ccc(C(=O)Nc2ccc(CN3CCN(C)CC3)c(C(F)(F)F)c2)cc1C#Cc1cnc2cccnn12 [ponatinib]	97%	-0.22%	17%	78%	–	80%	79%	1.59%	8%	96%	–	-9%	9%	9%	-4%	–	–	–	–	–
O=S(=O)(c1cccc2cnccc12)N1CCCNCC1 [fasudil]	-6%	-0.108%	-4%	37%	37%	-1.41%	3.42%	-24%	–	-0.948%	0.181%	22%	13%	-4.38%	-3%	–	-5.38%	–	–	–
COc1cc(Nc2c(C#N)cnc3cc(OCCCN4CCN(C)CC4)c(OC)cc23)c(Cl)cc1Cl [bosutinib]	35%	-3.29%	10%	–	–	100%	12%	44%	–	100%	–	–	–	71%	14%	–	–	–	–	–
Cc1ccc(Nc2nccc(N(C)c3ccc4c(C)n(C)nc4c3)n2)cc1S(N)(=O)=O [pazopanib]	70%	-4.23%	–	1.69%	0.901%	35%	8%	-12%	-4%	19%	-3.23%	-5%	-0.507%	48%	-3%	–	8%	–	–	–
CCN(CC)CCNC(=O)c1c(C)[nH]c(/C=C2\C(=O)Nc3ccc(F)cc32)c1C [sunitinib]	–	–	–	–	–	–	90%	–	–	–	34%	–	–	–	–	–	5%	–	–	–
CS(=O)(=O)CCNCc1ccc(-c2ccc3ncnc(Nc4ccc(OCc5cccc(F)c5)c(Cl)c4)c3c2)o1 [lapatinib]	–	-5%	0%	8%	7%	–	3%	4.31%	3.6%	-7%	–	–	–	1.72%	-8.54%	–	0.333%	63%	-2.57%	-0.581%
COc1cc2c(Nc3ccc(Br)cc3F)ncnc2cc1OCC1CCN(C)CC1 [vandetanib]	100%	0.22%	–	2.58%	-0.384%	24%	46%	9%	-3.59%	70%	-2.22%	-8%	-21%	–	-4.74%	–	3%	–	–	–
COc1cc2nccc(Oc3ccc(NC(=O)C4(C(=O)Nc5ccc(F)cc5)CC4)cc3)c2cc1OC [cabozantinib]	–	-1.54%	–	-3.52%	-2%	-2%	14%	42%	-9%	6%	-1.74%	-9%	5%	49%	4.74%	–	37%	–	–	–
